# Data: patent publication US20040127518A1, “Modulation of anxiety through blockade of anandamide hydrolysis” (priority 2002, published 2004)
# Counter-ions that a name gives are not always drawn. Like-named read-outs stand apart in the source and are kept apart here.
# Assays:
# FAAH = biological target: T1, FAAH (Rattus norvegicus, UniProt P97612); assay: biochemical; type: biochemical; set-up: from tissue; host or cells: rat brain (membrane fraction of homogenate; Wistar rats)
# T1 sequence (P97612 1-579): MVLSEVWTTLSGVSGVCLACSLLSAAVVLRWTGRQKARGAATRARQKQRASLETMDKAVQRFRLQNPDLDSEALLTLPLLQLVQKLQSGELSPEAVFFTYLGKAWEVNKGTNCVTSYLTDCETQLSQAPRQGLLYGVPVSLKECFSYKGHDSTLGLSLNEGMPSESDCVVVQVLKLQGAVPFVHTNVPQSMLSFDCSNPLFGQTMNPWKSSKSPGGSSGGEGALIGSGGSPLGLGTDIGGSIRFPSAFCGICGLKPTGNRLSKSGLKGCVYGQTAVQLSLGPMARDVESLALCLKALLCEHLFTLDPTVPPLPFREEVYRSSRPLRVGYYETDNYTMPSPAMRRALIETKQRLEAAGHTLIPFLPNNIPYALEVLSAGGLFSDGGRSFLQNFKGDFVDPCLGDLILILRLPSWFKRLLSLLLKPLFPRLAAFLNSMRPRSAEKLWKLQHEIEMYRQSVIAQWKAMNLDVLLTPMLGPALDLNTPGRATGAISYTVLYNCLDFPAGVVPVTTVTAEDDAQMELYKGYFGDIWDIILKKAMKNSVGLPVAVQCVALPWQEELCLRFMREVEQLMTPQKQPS
# [1] = biological target: electric eel acetylcholinesterase (Electrophorus electricus, UniProt O42275); assay: biochemical
# Source text: We prepared cell fractions from rat brain homogenates, and assayed membrane FAAH activity and cytosol MGL activity using anandamide [ethanolamine-3H] (American Radiolabeled Chemicals, ARC (St. Louis Mo.), 60 Ci/mmol) and 2-mono-oleoyl-glycerol-[glycerol-1,2,3^−3H] (ARC, St. Louis Mo., 20 Ci/mmol), respectively, as substrates (Dinh, T. Proc. Natl. Acad. Sci. U.S.A. (2002)). We conducted [^3H]anandamide transport assays in human astrocytoma cells (Piomelli, D. et al., Proc. Natl. Acad. Sci. U.S.A., 96, 5802-5807 (1999)); CB1 and CB2 binding assays in rat cerebellar membranes and CB2-overexpressing Chinese hamster ovary cells (Receptor Biology-Perkin Elmer, Wellesley, Mass.), respectively, using [^3H]WIN-55212-2 (NEN-Dupont, Boston, Mass., 40-60 Ci/mmol) as a ligand (Devane, W. A. et al. Science, 258, 1946-1949 (1992)); cholinesterase assays with a commercial kit (Sigma, St. Louis, Mo.), using purified enzymes (electric eel acetylcholinesterase type V-S and horse serum cholinesterase; both from Sigma, St. Louis, Mo.) and following manufacturer's instructions.
# [2] = Table 4, FAAH IC50, read-out: Inhibition of Amidohydrolase IC50
# [3] = Table 5, rat brain membranes, [3H]anandamide, read-out: IC50 (nM) ± S.E.M.
# [4] = Table 6, meta-substituted derivatives, read-out: pIC50 obsd (converted)
# [5] = Table 3, read-out: Amidohydrolase IC50
# [6] = Table 1, rat brain membranes, mean of at least three experiments, read-out: IC50
# [7] = Inhibition of Amidohydrolase IC50(μM)
# Chain of electric eel acetylcholinesterase (O42275 whole entry): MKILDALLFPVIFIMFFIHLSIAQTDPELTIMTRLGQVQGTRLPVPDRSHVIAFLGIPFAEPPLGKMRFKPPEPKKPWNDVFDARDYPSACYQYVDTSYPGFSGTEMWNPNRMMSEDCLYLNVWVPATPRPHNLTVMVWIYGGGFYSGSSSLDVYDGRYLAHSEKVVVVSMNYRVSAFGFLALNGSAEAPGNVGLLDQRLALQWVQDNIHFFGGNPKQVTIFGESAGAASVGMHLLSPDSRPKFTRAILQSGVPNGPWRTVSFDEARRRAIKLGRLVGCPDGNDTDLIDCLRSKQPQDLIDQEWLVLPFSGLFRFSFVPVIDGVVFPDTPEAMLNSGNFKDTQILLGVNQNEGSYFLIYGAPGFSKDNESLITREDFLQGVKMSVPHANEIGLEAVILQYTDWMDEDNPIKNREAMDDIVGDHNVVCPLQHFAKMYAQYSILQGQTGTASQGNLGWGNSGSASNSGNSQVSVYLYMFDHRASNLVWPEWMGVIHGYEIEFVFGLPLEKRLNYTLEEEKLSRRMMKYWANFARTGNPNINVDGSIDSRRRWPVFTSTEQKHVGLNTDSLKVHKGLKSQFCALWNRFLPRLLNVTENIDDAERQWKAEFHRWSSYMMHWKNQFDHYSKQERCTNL
smiles,measurement,setting,value
CCNC(=O)OCC12CC3CC(CC(C3)C1)C2 [#31],IC50,FAAH; [2],> 30000 nM
CCCCCc1cccc(OC(=O)NC2CCCCC2)c1 [#33],IC50,FAAH; [2],220 nM
O=C(NC1CCCCC1)Oc1cccc(-c2cccc(-c3ccccc3)c2)c1 [#34],IC50,FAAH; [2],560 nM
O=C(NC1CCCCC1)Oc1cccc(-c2cccc(Oc3ccccc3)c2)c1 [#35],IC50,FAAH; [2],2600 nM
O=C(NC1CCCCC1)Oc1ccc2ccn(-c3ccccc3)c2c1 [#36],IC50,FAAH; [2],1400 nM
O=C(NC1CCCCC1)Oc1cccc(-c2ccc(C(F)(F)F)cc2)c1 [Compound 3a],IC50,FAAH; IC50 (nM) ± S.E.M.,1590 nM
Cc1ccc(-c2cccc(OC(=O)NC3CCCCC3)c2)cc1 [Compound 3b],IC50,FAAH; [3],155 ± 21 nM
NC(=O)c1ccc(-c2cccc(OC(=O)NC3CCCCC3)c2)cc1 [Compound 3c],IC50,FAAH; [3],5910 nM
Nc1ccc(-c2cccc(OC(=O)NC3CCCCC3)c2)cc1 [Compound 3d],IC50,FAAH; IC50 (nM) ± S.E.M.,360 ± 59 nM
O=C(NC1CCCCC1)Oc1cccc(-c2ccc(F)cc2)c1 [Compound 3e],IC50,FAAH; [3],65 ± 14 nM
same,inhibition of FAAH activity (in words),FAAH; rat brain membranes,comparable IC50 value
O=C(NC(=O)c1ccc(-c2cccc(OC(=O)NC3CCCCC3)c2)cc1)NC1CCCCC1 [Compound 3f],IC50,FAAH; IC50 (nM) ± S.E.M.,3020 nM
O=C(NC1CCCCC1)Oc1cccc(-c2cccc(C(F)(F)F)c2)c1 [Compound 3g],IC50,FAAH; IC50 (nM) ± S.E.M.,146 ± 16 nM
same,IC50,FAAH; pIC50 obsd,145 nM
Cc1cccc(-c2cccc(OC(=O)NC3CCCCC3)c2)c1 [Compound 3h],IC50,FAAH; [3],61.7 ± 19 nM
same,IC50,FAAH; [4],61.7 nM
same,inhibition of FAAH activity (in words),FAAH; rat brain membranes,as potent as the parent compound
Nc1cccc(-c2cccc(OC(=O)NC3CCCCC3)c2)c1 [Compound 3j],inhibition of FAAH activity (in words),FAAH,as potent as the parent compound
same,IC50,FAAH; IC50 (nM) ± S.E.M.,64.6 ± 9 nM
same,IC50,FAAH; pIC50 obsd,64.6 nM
O=C(NC1CCCCC1)Oc1cccc(-c2cccc(F)c2)c1 [Compound 3k],IC50,FAAH; [3],96.6 ± 4 nM
same,IC50,FAAH; [4],95.5 nM
O=C(NC1CCCCC1)Oc1cccc(-c2cccc(OC(=O)NC3CCCCC3)c2)c1 [Compound 3l],IC50,FAAH; [3],361 ± 137 nM
same,IC50,FAAH; [4],363 nM
O=C(NC1CCCCC1)Oc1cccc(-c2cccc(Oc3ccccc3)c2)c1 [Compound 3m],IC50,FAAH; [3],420 ± 86 nM
same,IC50,FAAH; [4],417 nM
O=C(NC1CCCCC1)Oc1cccc(-c2cccc(-c3ccccc3)c2)c1 [Compound 3n],IC50,FAAH; [3],565 ± 42 nM
same,IC50,FAAH; [4],562 nM
O=C(NC1CCCCC1)Oc1cccc(-c2cccc(Cc3ccccc3)c2)c1 [Compound 3o],IC50,FAAH; [3],1860 nM
same,IC50,FAAH; [4],1860 nM
CCCc1cccc(-c2cccc(OC(=O)NC3CCCCC3)c2)c1 [Compound 3p],IC50,FAAH; IC50 (nM) ± S.E.M.,110 ± 16 nM
same,IC50,FAAH; pIC50 obsd,110 nM
O=C(NC1CCCCC1)Oc1cccc(-c2cccc([N+](=O)[O-])c2)c1 [Compound 3q],IC50,FAAH; [3],49.6 ± 2 nM
same,IC50,FAAH; [4],50.1 nM
NS(=O)(=O)c1cccc(-c2cccc(OC(=O)NC3CCCCC3)c2)c1 [Compound 3r],IC50,FAAH; [3],26.5 ± 4.5 nM
same,IC50,FAAH; [4],26.3 nM
CC(=O)c1cccc(-c2cccc(OC(=O)NC3CCCCC3)c2)c1 [Compound 3s],IC50,FAAH; [3],9.1 ± 0.5 nM
same,IC50,FAAH; [4],9.12 nM
N#Cc1cccc(-c2cccc(OC(=O)NC3CCCCC3)c2)c1 [Compound 3t],IC50,FAAH; [3],33.9 ± 7 nM
same,IC50,FAAH; [4],33.9 nM
O=C(NC1CCCCC1)Oc1cccc(-c2cccc(O)c2)c1 [Compound 3u],IC50,FAAH; IC50 (nM) ± S.E.M.,8.65 ± 0.1 nM
same,IC50,FAAH; pIC50 obsd,8.71 nM
O=C(NC1CCCCC1)Oc1cccc(-c2cccc(CO)c2)c1 [Compound 3v],IC50,FAAH; [3],8.67 ± 0.9 nM
same,IC50,FAAH; [4],8.71 nM
O=C(NC1CCCCC1)Oc1cccc(-c2cccc(CCO)c2)c1 [Compound 3w],IC50,FAAH; [3],18.7 ± 4.5 nM
same,IC50,FAAH; [4],18.6 nM
NCc1cccc(-c2cccc(OC(=O)NC3CCCCC3)c2)c1 [Compound 3z],IC50,FAAH; IC50 (nM) ± S.E.M.,21200 nM
"O=C(Oc1ccccc1)N1CCCCC1 [PL#1, 1-phenyl-N-piperidinecarboxylate]",IC50,[1],> 30000 nM
same,IC50,FAAH; [5],> 30000 nM
same,IC50,FAAH; [2],> 30000 nM
"CCCCNC(=O)Oc1ccc2cc(Br)ccc2c1 [PL#3, 6-bromo-2-naphtyhyl N-butylcarbamate]",IC50,[1],> 30000 nM
same,IC50,FAAH; [5],760 nM
same,IC50,FAAH; [2],760 nM
"CNC(=O)Oc1ccc2ccccc2c1 [PL#4, 2-naphtyl-N-methylcarbamate]",IC50,[1],> 30000 nM
same,IC50,FAAH; [6],18600 nM
same,IC50,FAAH; [5],18700 nM
same,IC50,FAAH; [2],18600 nM
same,IC50,"FAAH; rat brain membranes, mean±SEM, n=3, read-out: IC50",18600 ± 700 nM
"CNC(=O)Oc1ccc2c(c1)[C@@]1(C)CCN(C)[C@H]1N2C [PL#16, (−)-Physostigmine sulfate, reference compound]",IC50,FAAH; [5],> 30000 nM
same,IC50,FAAH; [2],> 30000 nM
CC1=CC(C)(C)N(C(=O)NC2CCCCC2)c2cc(C)c(C)cc21 [PL#19],IC50,FAAH; [2],> 30000 nM
O=C(Nc1cccc2ccccc12)NC1CCCCC1 [PL#20],IC50,FAAH; [2],> 30000 nM
O=C(Nc1ccc(Cl)cc1)NC1CCCCC1 [PL#21],IC50,FAAH; [2],> 30000 nM
O=C(Nc1ccc2ccccc2c1)N1CCCCC1 [PL#22],IC50,FAAH; [2],> 30000 nM
CCCCNC(=O)Nc1cccc2ccccc12 [PL#23],IC50,FAAH; [2],> 30000 nM
O=C(NC1CCCCC1)Oc1ccc(/C=C/c2ccccc2)cc1 [PL#24],IC50,FAAH; read-out: Inhibition of Amidohydrolase IC50,3300 nM
O=C(NC1CCCCC1)Oc1ccc(/C=C\c2ccccc2)cc1 [PL#25],IC50,FAAH; [7],240 nM
O=C(NC1CCCCC1)Oc1ccc2cccc(Br)c2c1 [PL#27],IC50,FAAH; [2],170 nM
CCc1ccc2cc(OC(=O)NC3CCCCC3)ccc2c1 [PL#28],IC50,FAAH; [7],3000 nM
Cc1ccc(-c2cccc(OC(=O)NC3CCCCC3)c2)cc1 [PL#37],IC50,FAAH; [2],230 nM
O=C(NC1CCCCC1)Oc1cccc(-c2ccc(C(F)(F)F)cc2)c1 [PL#38],IC50,FAAH; [7],1600 nM
Nc1ccc(-c2cccc(OC(=O)NC3CCCCC3)c2)cc1 [PL#39],IC50,FAAH; [7],510 nM
NC(=O)c1ccc(-c2cccc(OC(=O)NC3CCCCC3)c2)cc1 [PL#40],IC50,FAAH; [2],> 10000 nM
O=C(NC1CCCCC1)Oc1cccc(-c2ccc(F)cc2)c1 [PL#41],IC50,FAAH; [2],90 nM
O=C(NC(=O)c1ccc(-c2cccc(OC(=O)NC3CCCCC3)c2)cc1)NC1CCCCC1 [PL#42],IC50,FAAH; [7],~30000 nM
Cc1cccc(-c2cccc(OC(=O)NC3CCCCC3)c2)c1 [PL#43],IC50,FAAH; [2],100 nM
O=C(NC1CCCCC1)Oc1cccc(-c2cccc(C(F)(F)F)c2)c1 [PL#44],IC50,FAAH; [7],130 nM
Nc1cccc(-c2cccc(OC(=O)NC3CCCCC3)c2)c1 [PL#45],IC50,FAAH; [7],60 nM
O=C(NC1CCCCC1)Oc1cccc(-c2cccc(F)c2)c1 [PL#47],IC50,FAAH; [2],92 nM
Cc1ccc(OC(=O)NC2CCCCC2)cc1-c1ccccc1 [PL#48],IC50,FAAH; [2],200 nM
NC(=O)c1ccc(OC(=O)NC2CCCCC2)cc1-c1ccccc1 [PL#49],IC50,FAAH; [2],200 nM
O=C(NC(=O)c1ccc(OC(=O)NC2CCCCC2)cc1-c1ccccc1)NC1CCCCC1 [PL#50],IC50,FAAH; [2],3100 nM
O=C(NC1CCCCC1)Sc1ccc2ccccc2c1 [PL#52],IC50,FAAH; [7],15000 nM
O=C(Nc1ccccc1)OC1CCCCC1 [PL#56],IC50,FAAH; [2],3100 nM
Cc1cccc(NC(=O)OC2CCCCC2)c1 [PL#57],IC50,FAAH; [2],800 nM
O=C(NC1CCCCC1)Oc1ccc([N+](=O)[O-])c(-c2ccccc2)c1 [PL#58],IC50,FAAH; [2],> 30000 nM
Nc1ccc(OC(=O)NC2CCCCC2)cc1-c1ccccc1 [PL#59],IC50,FAAH; [2],50 nM
O=C(NC1CCCCC1)Oc1cc(-c2ccccc2)ccc1[N+](=O)[O-] [PL#60],IC50,FAAH; [2],> 30000 nM
Nc1ccc(-c2ccccc2)cc1OC(=O)NC1CCCCC1 [PL#61],IC50,FAAH; [2],> 30000 nM
CCCc1cccc(-c2cccc(OC(=O)NC3CCCCC3)c2)c1 [PL#62],IC50,FAAH; [7],80 nM
"O=C(NC1CCCCC1)Oc1cccc(-c2ccccc2)c1 [URB524, cyclohexylcarbamic acid biphenyl-3-yl ester]",IC50,FAAH; [6],63 nM
same,IC50,FAAH; [2],60 nM
same,IC50,FAAH; [3],63 ± 9 nM
same,pIC50 obsd,"FAAH; Table 6, meta-substituted derivatives",7.20
same,IC50,"FAAH; rat brain membranes, read-out: IC50",63 ± 9 nM
